The values that follow come from paper PMC2722590, “Production of N-acetyl-D-neuraminic acid using two sequential enzymes overexpressed as double-tagged fusion proteins” (BMC Biotechnology, 2009).

For the assay, the target named is T1, GST-GlcNAc 2-epimerase-5D (Synechocystis sp. PCC 6803, UniProt P74124).
T1 construct: gene slr1975; 1209 bp PCR fragment
T1 sequence (P74124 1-391): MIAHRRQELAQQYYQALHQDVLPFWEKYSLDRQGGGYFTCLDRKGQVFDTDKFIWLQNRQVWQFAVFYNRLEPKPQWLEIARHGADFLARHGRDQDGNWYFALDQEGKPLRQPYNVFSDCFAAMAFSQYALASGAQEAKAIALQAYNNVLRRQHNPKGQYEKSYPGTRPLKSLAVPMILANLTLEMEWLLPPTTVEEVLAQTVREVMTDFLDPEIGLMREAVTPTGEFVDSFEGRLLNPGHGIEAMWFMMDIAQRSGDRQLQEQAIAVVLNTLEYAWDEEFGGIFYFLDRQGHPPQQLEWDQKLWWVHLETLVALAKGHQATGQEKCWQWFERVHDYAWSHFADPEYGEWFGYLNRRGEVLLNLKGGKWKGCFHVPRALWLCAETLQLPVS
Description: enzyme inhibition kinetics. As to conditions: read-out: inhibition constant. The format is biochemical.

The structures appear in SMILES notation.

Turning to `CC(=O)C(=O)O` [pyruvate], the Ki turned out to be 31 mM.
